Source: US20210292330A1, “PYRROLIDINE-FUSED HETEROCYCLES” (Erasca, Inc., priority 2020, published 2021)

Target: T1, KRAS 4B G12C protein (Homo sapiens, UniProt P01116, G12C)
T1 construct: This protein contained 188 amino acids in total, including an N-terminal 6-Histidine tag; made in house; host or cells: E. coli BL21
Assay: In vitro covalent adduct formation (CAF) assay by LC-MS
Format: binding
Conditions: compound 10 μM, protein 5 μM, 22° C., percentage of protein bound by the compound
Method: In vitro covalent adduct formation assay: Covalent adduct formation (CAF) reactions between Cys12 of the KRAS 4B G12C protein and some of the compounds of Table 1 were measured in vitro using liquid chromatography-mass spectrometry (LC-MS).
Recombinant Human KRAS 4B protein containing the G12C mutation was used in compound screening experiments. This protein contained 188 amino acids in total, including an N-terminal 6-Histidine tag, followed by a Tobacco Etch Virus (TEV) tag, followed by residues 1-169 of the native KRAS 4B sequence. The exact mass of the protein was 21,310 Da as determined by mass spectrometry. The full amino acid sequence is shown below:
The recombinant protein was expressed in E. coli BL21 cells and purified using affinity chromatography via a Ni-NTA column. […] Pure KRAS 4B G12C protein was diluted to a concentration of 5 μM in Tris Buffered Saline, pH 7.4. The compounds were dissolved in DMSO and added to the diluted protein to make a 10 μM concentration. The total DMSO concentration in the reaction was 4%. The reaction was mixed by pipetting and incubated at 22° C. for one hour. Aliquots of the reaction were taken over time and diluted 2:1 in 0.1% formic acid. The intact mass of the protein samples was measured by LC-MS using a QExactive+ mass spectrometer (Thermo Scientific). An amount of 500 ng total protein was injected onto a C8 reverse phase column, eluted with a seven-minute gradient of 30%-90% acetonitrile/0.1% formic acid, and analyzed for intact mass by the mass spectrometer. Adducts identified were confirmed to be within 1 Dalton of the expected mass, and the relative ratios of free:adduct protein were used to quantify the percentage of protein bound by the compound. CAF reactions were run in duplicate, with a typical variability of ±5%.

C=CC(=O)N1CCN(c2nc(OC[C@@H]3CCCN3C)nc3c2CN(C2CC(C)(C)c4ccccc42)C3)C[C@@H]1CC#N (stereo partly shown) [1-169]
CAF (10 minutes/60 minutes) at 10 micromolar: 10 minutes: 63%
CAF (10 minutes/60 minutes) at 10 micromolar: 60 minutes: 70%

C=CC(=O)N1CC2COCC(C1)N2c1nc(OC[C@@H]2CCCN2C)nc2c1CN(Cc1cc(OC)ccc1Cl)C2 [1-88]
CAF (10 minutes/60 minutes) at 10 micromolar: 10 minutes: 0%/ 0%
CAF (10 minutes/60 minutes) at 10 micromolar: 60 minutes: 0%/ 0%

C=CC(=O)N1CCN(c2nc(OC[C@@H]3CCCN3C)nc3c2CN(Cc2c(Cl)cccc2OC(F)F)C3)[C@@H](C)C1 [1-99]
CAF (10 minutes/60 minutes) at 10 micromolar: 10 minutes: 0%
CAF (10 minutes/60 minutes) at 10 micromolar: 60 minutes: 6%

C=CC(=O)N1CCN(c2nc(OC[C@@H]3CCCN3C)nc3c2CN(Cc2cc(C(F)(F)F)ccc2C)C3)[C@@H](C)C1 [1-15]
CAF (10 minutes/60 minutes) at 10 micromolar: 10 minutes: 0%/ 0%
CAF (10 minutes/60 minutes) at 10 micromolar: 60 minutes: 0%/ 0%

C=CC(=O)N1C[C@H](C)N(c2nc(OC[C@@H]3CCCN3C)nc3c2CN(Cc2c(C)ccc4[nH]ncc24)C3)C[C@H]1C [1-22]
CAF (10 minutes/60 minutes) at 10 micromolar: 10 minutes: 1%
CAF (10 minutes/60 minutes) at 10 micromolar: 60 minutes: 15%

C=CC(=O)N1CCN(c2nc(OC[C@@H]3CCCN3C)nc3c2CN(C(C)c2c(F)cccc2OC)C3)C[C@@H]1CC#N (stereo partly shown) [1-97]
CAF (10 minutes/60 minutes) at 10 micromolar: 10 minutes: 95%
CAF (10 minutes/60 minutes) at 10 micromolar: 60 minutes: 98%

C=CC(=O)N1CCN(c2nc(O[C@@H]3CN(C)C[C@H]3OC)nc3c2CN(C2CCc4ccccc42)C3)C2CS(=O)(=O)CC21 (stereo partly shown) [1-228]
CAF (10 minutes/60 minutes) at 10 micromolar: 10 minutes: 0%/ 0%
CAF (10 minutes/60 minutes) at 10 micromolar: 60 minutes: 0%/ 0%

C=CC(=O)N1CCN(c2nc(OC[C@@H]3CCCN3C(C)C)nc3c2CN(C2CCc4ccccc42)C3)C[C@@H]1CC#N (stereo partly shown) [1-176]
CAF (10 minutes/60 minutes) at 10 micromolar: 10 minutes: 88%
CAF (10 minutes/60 minutes) at 10 micromolar: 60 minutes: 94%

C=CC(=O)N1CCN(c2nc(Oc3cccc4c3CCN(C)C4)nc3c2CN(C2CCc4ccccc42)C3)C[C@@H]1CC#N (stereo partly shown) [1-171]
CAF (10 minutes/60 minutes) at 10 micromolar: 10 minutes: 9%
CAF (10 minutes/60 minutes) at 10 micromolar: 60 minutes: 29%

C=CC(=O)N1CCN(c2nc(OC[C@@H]3CCCN3C(C)(C)C)nc3c2CN(C2CCc4ccccc42)C3)C[C@@H]1CC#N (stereo partly shown) [1-202]
CAF (10 minutes/60 minutes) at 10 micromolar: 10 minutes: 82%
CAF (10 minutes/60 minutes) at 10 micromolar: 60 minutes: 89%

C=CC(=O)N1CCN(c2nc(CC[C@@H]3CCCN3C)nc3c2CN(C2CCc4ccccc42)C3)C[C@@H]1CC#N (stereo partly shown) [1-146]
CAF (10 minutes/60 minutes) at 10 micromolar: 10 minutes: 7%
CAF (10 minutes/60 minutes) at 10 micromolar: 60 minutes: 33%

C=CC(=O)N1CCN(c2nc(OC[C@@H]3CCCN3C)nc3c2CN(Cc2ccccc2)C3)C[C@@H]1CC#N [1-77]
CAF (10 minutes/60 minutes) at 10 micromolar: 10 minutes: 27%
CAF (10 minutes/60 minutes) at 10 micromolar: 60 minutes: 43%

C=CC(=O)N1CCN(c2nc(O[C@@H]3CN(C)C[C@H]3OC)nc3c2CN(Cc2cc(O)ccc2Cl)C3)C2COCC21 (stereo partly shown) [1-336]
CAF (10 minutes/60 minutes) at 10 micromolar: 10 minutes: 0%
CAF (10 minutes/60 minutes) at 10 micromolar: 60 minutes: 9%

C#Cc1ccccc1CN1Cc2nc(OC[C@@H]3CCCN3C)nc(N3CCN(C(=O)C=C)[C@@H](CC#N)C3)c2C1 [1-235]
CAF (10 minutes/60 minutes) at 10 micromolar: 10 minutes: 0%/ 0%
CAF (10 minutes/60 minutes) at 10 micromolar: 60 minutes: 0%/ 0%

C=C(F)C(=O)N1CCN(c2nc(OC[C@@H]3CCCN3C)nc3c2CN(Cc2nc(N)ccc2Cl)C3)C[C@@H]1CC#N [1-339]
CAF (10 minutes/60 minutes) at 10 micromolar: 10 minutes: 83%
CAF (10 minutes/60 minutes) at 10 micromolar: 60 minutes: 92%

C=CC(=O)N1CCN(c2nc(OC[C@@H]3CCCN3C)nc3c2CN(C2CCc4cccc(Cl)c42)C3)C[C@@H]1CC#N (stereo partly shown) [1-84]
CAF (10 minutes/60 minutes) at 10 micromolar: 10 minutes: 98%
CAF (10 minutes/60 minutes) at 10 micromolar: 60 minutes: 99%

C=C(F)C(=O)N1CCN(c2nc(OCCC(F)F)nc3c2CN(C2CCc4ccccc42)C3)C[C@@H]1CC#N (stereo partly shown) [1-167]
CAF (10 minutes/60 minutes) at 10 micromolar: 60 minutes: NA/ 0%

C=CC(=O)N1C2COCC1CN(c1nc(OC[C@@H]3CCCN3C)nc3c1CN(Cc1cc(O)ccc1Cl)C3)C2 [1-124]
CAF (10 minutes/60 minutes) at 10 micromolar: 10 minutes: 21%
CAF (10 minutes/60 minutes) at 10 micromolar: 60 minutes: 67%

C=C(F)C(=O)N1CCN(c2nc(OC[C@@H]3CCCN3C)nc3c2CN(C2CCc4ccccc42)C3)C[C@@H]1CC#N (stereo partly shown) [1-109]
CAF (10 minutes/60 minutes) at 10 micromolar: 10 minutes: 48%
CAF (10 minutes/60 minutes) at 10 micromolar: 60 minutes: 68%

C=CC(=O)N1CCN(c2nc(OC[C@@H]3CCCN3CC(F)F)nc3c2CN(C2CCc4ccccc42)C3)C[C@@H]1CC#N (stereo partly shown) [1-147]
CAF (10 minutes/60 minutes) at 10 micromolar: 10 minutes: 78%
CAF (10 minutes/60 minutes) at 10 micromolar: 60 minutes: 86%

C=CC(=O)N1CCN(c2nc(O[C@@H]3CN(C)C[C@H]3OC)nc3c2CN(C2CCc4ccccc42)C3)C[C@@H]1CC#N (stereo partly shown) [1-170]
CAF (10 minutes/60 minutes) at 10 micromolar: 10 minutes: 31%
CAF (10 minutes/60 minutes) at 10 micromolar: 60 minutes: 53%

C=CC(=O)N1CCN(c2nc(Oc3cccnc3C3CC3)nc3c2CN(C2CCc4ccccc42)C3)C[C@@H]1CC#N (stereo partly shown) [1-173]
CAF (10 minutes/60 minutes) at 10 micromolar: 10 minutes: 6%
CAF (10 minutes/60 minutes) at 10 micromolar: 60 minutes: 24%

C=C(F)C(=O)N1CCN(c2nc(OC[C@@H]3CCCN3C)nc3c2CN(Cc2c(C)cc(C)c(O)c2C)C3)C[C@@H]1CC#N [1-325]
CAF (10 minutes/60 minutes) at 10 micromolar: 10 minutes: 0%
CAF (10 minutes/60 minutes) at 10 micromolar: 60 minutes: 3%

C=CC(=O)N1CCN(c2nc(OC[C@@H]3CCCN3C)nc3c2CN(Cc2cc(O)ccc2C)C3)[C@@H](C)C1 [1-1, 1-[(3S)-4-{6-[(5-hydroxy-2-methylphenyl)methyl]-2-{[(2S)-1-methylpyrrolidin-2-yl]methoxy}-5H,7H-pyrrolo[3,4-d]pyrimidin-4-yl}-3-methylpiperazin-1-yl]prop-2-en-1-one]
CAF (10 minutes/60 minutes) at 10 micromolar: 10 minutes: 69%
CAF (10 minutes/60 minutes) at 10 micromolar: 60 minutes: 93%

C=CC(=O)N1CCN(c2nc(OC[C@@H]3CCCN3C)nc3c2CN(Cc2cc(F)cc(F)c2)C3)[C@@H](C)C1 [1-13]
CAF (10 minutes/60 minutes) at 10 micromolar: 10 minutes: 0%/ 0%
CAF (10 minutes/60 minutes) at 10 micromolar: 60 minutes: 0%/ 0%

C=CC(=O)N1CCN(c2nc(OC[C@@H]3CCCN3C)nc3c2CN(C2CCc4ccccc42)C3)C[C@@H]1C[S+](C)[O-] (stereo partly shown) [1-209]
CAF (10 minutes/60 minutes) at 10 micromolar: 10 minutes: 0%/ 0%
CAF (10 minutes/60 minutes) at 10 micromolar: 60 minutes: 0%/ 0%

C=CC(=O)N1CCN(c2nc(OC[C@@H]3CCCN3C)nc3c2CN(C(C)c2cc(F)ccc2C)C3)C[C@@H]1CC#N (stereo partly shown) [1-73]
CAF (10 minutes/60 minutes) at 10 micromolar: 10 minutes: 61%
CAF (10 minutes/60 minutes) at 10 micromolar: 60 minutes: 86%

C=CC(=O)N1CCN(c2nc(OC[C@@H]3CCCN3C)nc3c2CN(Cc2cc(F)ccc2C)C3)C[C@@H]1CC#N [1-11]
CAF (10 minutes/60 minutes) at 10 micromolar: 10 minutes: 87%
CAF (10 minutes/60 minutes) at 10 micromolar: 60 minutes: 98%

C=CC(=O)N1CCN(c2nc(OC[C@@H]3CCCN3C)nc3c2CN(C2CCc4ccccc42)C3)C[C@@H]1CCO (stereo partly shown) [1-101]
CAF (10 minutes/60 minutes) at 10 micromolar: 10 minutes: 0%
CAF (10 minutes/60 minutes) at 10 micromolar: 60 minutes: 1%

C=CC(=O)N1CCN(c2nc(OC[C@@H]3CCCN3C)nc3c2CN(C2CCc4ccccc42)C3)C[C@@H]1C#N (stereo partly drawn) [1-155, (2R)-1-acryloyl-4-(6-(2,3-dihydro-1H-inden-1-yl)-2-(((S)-1-methylpyrrolidin-2-yl)methoxy)-6,7-dihydro-5H-pyrrolo[3,4-d]pyrimidin-4-yl)piperazine-2-carbonitrile]
CAF (10 minutes/60 minutes) at 10 micromolar: 10 minutes: 66%
CAF (10 minutes/60 minutes) at 10 micromolar: 60 minutes: 82%

C=CC(=O)N1C2CC(=O)CC1CN(c1nc(OC[C@@H]3CCCN3C)nc3c1CN(C1CCc4ccccc41)C3)C2 (stereo partly shown) [1-233]
CAF (10 minutes/60 minutes) at 10 micromolar: 10 minutes: 0%
CAF (10 minutes/60 minutes) at 10 micromolar: 60 minutes: 5%

C=CC(=O)N1CCN(c2nc(OC[C@@H]3CCCN3C)nc3c2CN(Cc2cc(O)c(Cl)cc2Cl)C3)C[C@@H]1CC#N [1-330]
CAF (10 minutes/60 minutes) at 10 micromolar: 10 minutes: 52%
CAF (10 minutes/60 minutes) at 10 micromolar: 60 minutes: 86%

C=CC(=O)N1CCN(c2nc(OC[C@@H]3CCCN3C)nc3c2CN(C2CCc4ccccc42)C3)C[C@@H]1CC(F)(F)F (stereo partly shown) [1-100]
CAF (10 minutes/60 minutes) at 10 micromolar: 10 minutes: 0%
CAF (10 minutes/60 minutes) at 10 micromolar: 60 minutes: 5%

C=CC(=O)N1C2CC(=O)CC1CN(c1nc(OC[C@@H]3CCCN3C)nc3c1CN(Cc1cc(O)ccc1Cl)C3)C2 [1-328]
CAF (10 minutes/60 minutes) at 10 micromolar: 10 minutes: 14%
CAF (10 minutes/60 minutes) at 10 micromolar: 60 minutes: 39%
